# Columns and labels:
# [1] = Determination of maximum absorption wavelength (λmax) after UV irradiation in solution; assay type: physicochemical; details: for λmax: chloroform, irradiated with ultraviolet light with a maximum wavelength of 350 nanometers
# Protocol: (§1) Each of the photochromic compounds (compound P) formed in step 2 of Examples 1-13 and Comparative Example 1 were independently dissolved in separate containers of chloroform. Additionally, a purchased sample of 3,3-diphenyl-naphtho-3H[2,1-b]pyran, identified as Comparative Example 2, was dissolved in a separate container of chloroform.
# (§2) Each of the chloroform-dissolved photochromic compounds of Examples 1-13 and Comparative Examples 1-2 were then irradiated with ultraviolet light with a maximum wavelength of 350 nanometers and were measured for maximum absorption wavelength) λmax. The fade time, T1/2 was then determined for each of the irradiated compounds. The fade time for a particular chloroform dissolved photochromic compound is defined as the time interval, at room temperature (72° F.), for the absorbance of the activated form of the chloroform-dissolved photochromic compound to decrease to 1/2 of the maximum absorbance, after the photochromic compound is isolated from the activating source of ultraviolet light. The maximum absorption wavelength and fade time determined for each of the irradiated photochromic compounds of Examples 1-13 and Comparative Examples 1-2 are presented in Table 1: […]
# [2] = Determination of fade time T1/2 after isolation from the activating UV light; assay type: physicochemical; parameters: key: *: Fades too fast to obtain readings; details: chloroform, room temperature (72° F.)
# Protocol: as §1, §2
# [3] = Determination of maximum absorption wavelength (λmax) after UV irradiation in solution; assay type: physicochemical; parameters: key: *: Fades too fast to obtain readings; details: cyclohexane
# [4] = U.S. Pat. No. 3,567,605 to Becker; cited from earlier work
# [5] = Color of the compound or blend when activated by ultraviolet light; assay type: physicochemical
# [6] = absorbance of activated form to decrease to 1/2 of maximum
λmax [1] [Nanometers],λmax [3] [Nanometers],Compound,"T1/2 (fade time) [2, 6] [s]",further results
472,451,"COc1ccc2c3c(ccc2c1)OC(c1ccccc1)(c1ccccc1)C=C3 [Comparative Example 1, 3,3-diphenyl-8-methoxy-3H-naphtho[2,1-b]pyran, reference compound]",10,–
435,415,"C1=CC(c2ccccc2)(c2ccccc2)Oc2ccc3ccccc3c21 [Comparative Example 2, 3,3-diphenyl-naphtho-3H[2,1-b]pyran, reference compound]",13,photochromism [4]: photochromic at room temperature
492,478,"COc1ccc2c3c(ccc2c1)OC1(C=C3)c2ccccc2-c2ccccc21 [Example 1, 8-methoxyspiro(3H-naphtho [2,1-b]pyran-3,9'-fluorene)]",20,"activated maximum wavelength of absorption ([1]; dissolved in chloroform, irradiated with ultraviolet light): about 492 nanometers; maximum wavelength of activation, compared with Comparative Example 1 ([1]; vs 3,3-diphenyl-8-methoxy-3H-naphtho[2,1-b]pyran): longer maximum wavelength of activation; color when activated by ultraviolet light [5]: deep shade of orange; color of blend with blue-turning photochromic compounds when activated by ultraviolet radiation ([5]; blended with blue-turning photochromic compounds, such as substituted spiroindolino naphthoxazine): desirable, intense shade of gray"
474,465,"COc1ccc2c3c(ccc2c1)OC1(C=C3)CCCc2ccccc21 (stereo not drawn) [Example 2, 8-methoxyspiro(3H-naphtho[2,1-b]pyran-3,1'-tetralone)]",15,–
445,–,"COc1ccc2c3c(ccc2c1)OC1(C=C3)CCCc2cc(OC)c(OC)cc21 (stereo not drawn) [Example 3, 6',7'-dimethoxy-8-methoxyspiro(3H-naphtho[2,1-b]pyran-3,1'-tetralone)]",–,"T1/2 (fade time) ([2]; symbol, no reading): *; λmax ([3]; symbol, no reading): *"
476,–,COc1ccc2c3c(ccc2c1)OC1(C=C3)c2ccccc2CC(c2ccccc2)C1c1ccccc1 (stereo not drawn) [Example 5],13,–
468,–,"COc1ccc2c3c(ccc2c1)OC1(C=C3)c2ccccc2CCC1C (stereo not drawn) [Example 6, 2'-methyl-8-methoxyspiro(3H-naphtho[2,1-b]pyran-3,1'-tetralone)]",1.2,–
478,–,"COc1ccc2c3c(ccc2c1)OC1(C=C3)c2ccccc2CC1C (stereo not drawn) [Example 7, 2'-methyl-8-methoxyspiro(3H-naphtho[2,1-b]pyran-3,1'-indan)]",396,–
512,–,"COc1ccc2c3c(ccc2c1)OC1(C=C3)C(c2ccccc2)=C(c2ccccc2)c2ccccc21 (stereo not drawn) [Example 8, 2',3'-diphenyl-8-methoxyspiro(3H-naphtho[2,1-b]pyran-3,1'-indene)]",64,–
445,438,"C1=CC2(Oc3ccc4ccccc4c31)c1ccccc1-c1ccccc12 [Example 9, spiro(3H-naphtho[2,1-b]pyran-3,9'-fluorene)]",10,"maximum wavelengths of activation, compared with Comparative Example 2 ([1]; vs 3,3-diphenyl-naphtho-3H[2,1-b]pyran): longer maximum wavelengths of activation"
444,–,"CC1CCc2ccccc2C12C=Cc1c(ccc3ccccc13)O2 (stereo not drawn) [Example 11, 2'-methylspiro(3H-naphtho[2,1-b]pyran-3,1'-tetralone)]",–,"T1/2 (fade time) ([2]; symbol, no reading): *"
454,–,C1=CC2(Oc3ccc4ccccc4c31)C(c1ccccc1)=C(c1ccccc1)c1ccccc12 (stereo not drawn) [Example 13],35,–

# Source: patent publication US5705102A, “Photochromic spironaphthopyran compounds” (Vision-Ease Lens, Inc., priority 1995, dated 1998)
